The results in this text go back to US5928910A, “Antifungal substances BE-49385 and process for their production” (Banyu Pharmaceutical Co., Ltd., priority 1995, dated 1999).

≈ marks a conversion by molar mass, not a printed value.

The test system of data set [1] is Kluyveromyces lactis IFO 1267. Kind of data set: MIC by agar dilution method, Kluyveromyces lactis IFO 1267. The class given is cell-based. The note with it: IFO1267, 72 h, 28° C., 3 days, read-out: MIC (minimum inhibitory concentration). Here is the method:
(§1) The minimum inhibitory concentrations of antifungal substances BE-49385 against various fungi were measured. The measurement of MIC was carried out by an agar dilution method using a culture medium prepared by mixing 900 ml of an agar solution containing 2.5 g of sterilized dipotassium hydrogenphosphate and 15 g of agar, with a solution obtained by dissolving 6.7 g of a yeast nitrogen base (manufactured by Difico Co.) and 10 g of glucose in 100 ml of purified water, followed by sterilization by means of sterilizing filter. BE-49385 was dissolved in dimethylsulfoxide to a concentration of 10 mg/ml and further diluted with dimethylsulfoxide to obtain a twice diluted series, and the dimethylsulfoxide concentration in the agar plate was adjusted to be 1%. On the prepared agar plate, 5 μl of the test strain solution adjusted to a concentration of 10^6 cells per 1 ml, was dropped, followed by culturing at 28° C. for 3 days, whereupon the growth was evaluated.
(§2) The minimum inhibitory concentrations (MIC, unit: μ g/ml) of antifungal substance BE-49385A against various fungi, are shown in Table 1, and MICs of BE-49385 substances against Schizosaccharomyces pombe IAM4863 are shown in Table

The next data set in a line: Solubility. Type of data set: physicochemical.
Data set [2] relates to Schizosaccharomyces pombe IAM4863. Kind of data set: MIC by agar dilution method, Schizosaccharomyces pombe IAM4863. The class given is cell-based. The note with it: 72 h, 28° C., 3 days, read-out: MIC (minimum inhibitory concentration). Here is the method: as §1, §2
(In general: In agar dilution, organisms are placed on agar that contains the substance at set levels.)

The test system of data set [3] is Penicillium chrysogenum IFO 6223. Description: MIC by agar dilution method, Penicillium chrysogenum IFO 6223. The class given is cell-based. The conditions noted are these: IFO6223, 72 h, 28° C., 3 days, read-out: MIC (minimum inhibitory concentration). Here is the method:
as §1, §2

Data set [4] deals with Saccharomyces cerevisiae IFO 1267. Kind of data set: MIC by agar dilution method, Saccharomyces cerevisiae IFO 1267. The class given is cell-based. The conditions noted are these: IFO1267, 72 h, 28° C., 3 days, read-out: MIC (minimum inhibitory concentration). Here is the method: as §1, §2
The subject of data set [5] is Candida albicans IFO 1270. Description: MIC by agar dilution method, Candida albicans IFO 1270. Type of data set: cell-based. The conditions noted are these: IFO1270, 72 h, 28° C., 3 days, read-out: MIC (minimum inhibitory concentration). Here is the method:
as §1, §2

Data set [6] has as its system Aspergillus niger IFO 31012. Description: MIC by agar dilution method, Aspergillus niger IFO 31012. The class given is cell-based. The note with it: IFO31012, 72 h, 28° C., 3 days, read-out: MIC (minimum inhibitory concentration). Here is the method: as §1, §2
The test system of data set [7] is Candida albicans IFO 1385. Kind of data set: MIC by agar dilution method, Candida albicans IFO 1385. The class given is cell-based. The note with it: IFO1385, 72 h, 28° C., 3 days, read-out: MIC (minimum inhibitory concentration). Here is the method: as §1, §2

Consider `C=C1C2CC3C(C(C)C)C(OC(=O)CC(C)(O)CC(C)CC)CC3(C)CC2C(C)=CCC2C(C)OC(=O)C(O)C12O` (stereo not drawn) [BE-49385A], for which the MIC in data set [1] is 0.78 µg/mL (≈ 1.36 µM); in data set [2], below 0.1 µg/mL; in data set [3] it was 0.39 µg/mL (≈ 0.678 µM); in data set [4], 3.13 µg/mL (≈ 5.45 µM); in data set [5], 0.78 µg/mL (≈ 1.36 µM); in data set [6], 0.78 µg/mL (≈ 1.36 µM). Besides, the MIC in data set [7] was 3.13 µg/mL (≈ 5.45 µM). In addition, in the data set “Solubility”, the “Solubility in an organic solvent such as methanol or dimethylsulfoxide” value (“Solubility in an organic solvent such” for short) is given as “Readily soluble”. Moreover, the Solubility in water entry in the data set “Solubility” is on record as “hardly soluble”.
As to `C=C1C2CC3C(C(C)C)C(OC(=O)C(O)CC(C)CC(C)CC)CC3(C)CC2C(C)=CCC2C(C)OC(=O)C(O)C12O` (stereo not drawn) [BE-49385B], in “Solubility”, the “Solubility in an organic solvent such” value was “Readily soluble” and the Solubility in water result was “hardly soluble”. For the same molecule, in data set [2], the MIC turned out to be 0.39 µg/mL (≈ 0.662 µM).
Consider `C=C1C2CC3C(C(C)C)C(O)CC3(C)CC2C(C)=CCC2C(C)OC(=O)C(O)C12O` (stereo not drawn) [BE-49385F], for which, in “Solubility”, the “Solubility in an organic solvent such” value is on record as “Readily soluble” and the Solubility in water result is recorded as “hardly soluble”.
`C=C1C2CC3C(C(C)C)C(OC(=O)C(O)c4ccccc4)CC3(C)CC2C(C)=CCC2C(C)OC(=O)C(O)C12O` (stereo not drawn) [BE-49385D]: in the data set “Solubility”, the “Solubility in an organic solvent such” value is recorded as “Readily soluble” and the Solubility in water result is recorded as “hardly soluble”. The MIC in data set [2] turned out to be 0.78 µg/mL (≈ 1.41 µM).
For `C=C1C2CC3C(C(C)C)C(OC(=O)C(O)C(O)C(C)CC(C)CC)CC3(C)CC2C(C)=CCC2C(C)OC(=O)C(O)C12O` (stereo not drawn) [BE-49385H], in “Solubility”, the “Solubility in an organic solvent such” value is “Readily soluble” and the Solubility in water result is “hardly soluble”.
Take `C=C1C2CC3C(C(C)C)C(OC(=O)C(O)C(C)(O)CC(C)CC)CC3(C)CC2C(C)=CCC2C(C)OC(=O)C(O)C12O` (stereo not drawn) [BE-49385E]: in the data set “Solubility”, the “Solubility in an organic solvent such” value is reported as “Readily soluble” and the Solubility in water result is on record as “hardly soluble”. Besides, the MIC in data set [2] is 0.2 µg/mL (≈ 0.339 µM).
As for `C=C1C2CC3C(C(C)C)C(OC(=O)CC(C)(O)CC(C)CC)CC3(C)CC2C(C)=CCC2C(C)OC(=O)C(OC(C)=O)C12O` (stereo not drawn) [BE-49385A-Ac], in “Solubility”, the “Solubility in an organic solvent such” value is on record as “Readily soluble” and the Solubility in water entry is reported as “hardly soluble”.
In the case of `C=C1C2CC3C(C(C)C)C(OC(=O)C(O)C(O)CCC(C)CC)CC3(C)CC2C(C)=CCC2C(C)OC(=O)C(O)C12O` (stereo not drawn) [BE-49385G], in “Solubility”, the “Solubility in an organic solvent such” value was “Readily soluble” and the Solubility in water entry is recorded as “hardly soluble”. In addition, the MIC in data set [2] is 0.39 µg/mL (≈ 0.66 µM).
Taken in the same sequence, the figures for `C=C1C2CC3C(C(C)C)C(OC(=O)CC(C)CC(C)CC)CC3(C)CC2C(C)=CCC2C(C)OC(=O)C(O)C12O` (stereo not drawn) [BE-49385C] were “Readily soluble”, “hardly soluble” and 0.39 µg/mL (≈ 0.698 µM).
